Measurements reported in paper PMC5494507, “γ‐Secretase inhibitors in cancer clinical trials are pharmacologically and functionally distinct” (EMBO Molecular Medicine, 2017).

How the values were obtained:
cNOTCH1sub = test: Cell-based γ-secretase cleavage assay, cNOTCH1sub in H4 cells (Aβ-like peptide ELISA); design: species or system human; details: Aβ-like peptide in media, GSI overnight
Protocol: Using these cell‐based γ‐secretase cleavage assays, we systematically investigated the substrate inhibition profile of BMS‐906024, MK‐0752, PF‐308414, RO4929097, Semagacestat, and DAPT. We treated H4 cells stably expressing cNOTCH1‐4sub with 4 pM to 10 μM of GSIs (Fig 5A and Table 2) and measured the Aβ‐like peptide secreted into the media.
For the cell‐based assay, all substrates contain a human NOTCH4 signal peptide sequence ([…]), amyloid β peptide (Aβ1–25/K16A) epitope tag followed by the juxtamembrane region (JMD) of the given substrate and a FLAG tag ([…]) at the COOH‐terminal. K16A mutant was created to decrease potential α‐secretase cleavage. The cDNAs were generated by gene synthesis conducted by Genscript. A schematic representation of the substrates is provided in Fig 4A, and sequences of the cDNAs and the proteins are provided in Appendix Fig S6. For clarity, these substrates are referred to as cell‐based assay substrates (e.g., NOTCH1 is cNOTCH1sub). Substrate cDNAs were cloned into pCDNA3.1 (Invitrogen, Carlsbad, CA, USA) for expression in H4 cells (ATCC, Manassas, VA).
(§1) H4 cells were cultured in Opti‐mem media (Thermo‐Fisher) supplemented with Hyclone 6% fetal bovine serum (GE, Logan, Utah, USA) and 1% penicillin/streptomycin (Life Technologies, Grand Island, NY, USA). pCDNA3.1 plasmids containing the substrate cDNAs were transfected into H4 cells using FuGENE HD reagent (Madison, WI, USA). Stable cell lines were established using G418 selection. […] Cells and conditioned media were used for WB, IP, and ELISA.
(§2) Sandwich ELISAs used for Aβ detection were performed as previously described (Murphy et al, 1999; Ran et al, 2014). Briefly, Aβ and Aβ‐like peptides in conditioned media were captured with Ab5 antibody and detected with horseradish peroxidase labeled mAb 4G8 (Biolegend). Synthetic Aβ1‐40 was used as standard. All ELISAs were developed with TMB substrate (KPL, Gaithersburg, Maryland, USA). Bis‐Tris precast gels (Biorad, Hercules, CA, USA) were used for all SDS–PAGE. Monoclonal anti‐FLAG M2 antibody (Sigma) and Aβ1‐16 antibody 6E10 (Covance) were used for Western blotting at 1:1,000 dilution. Anti‐CD74 In‐1 antibody (BD Bioscience, San Jose, CA, USA) was used for A20 cell lysate Western blotting at dilution of 1:1,000. MDA‐MB‐231 cell extracts were prepared by lysing cells in RIPA buffer containing protease and phosphatase inhibitors. The lysates were kept on ice for 30 min and vortexed every 10 min, and then centrifuged at 4°C for 10 min at 1,000 g. The supernatants were collected, and protein concentrations were determined by Bradford Assay. Pan‐NOTCH1 antibody (C‐20) (Santa Cruz Biotechnology) and cleaved NOTCH1 (Val1744) antibody ([…]) were used at 1:500 and 1:100 dilution in the test of endogenous NOTCH1 inhibition with β‐actin expression used as loading control. β‐actin antibody was used at 1:1,000 dilution (Sigma). Band intensities normalized for actin using densitometry analysis with ImageJ Software (NIH, USA).

full‐length APP = test: Cell-based γ-secretase cleavage assay, full-length APP stably overexpressing cells (Aβ ELISA); details: for IC50: full-length APP stably overexpressing cells, Aβ ELISA
Protocol: (§3) We next tested all GSIs on cAPPC100sub and full‐length APP stably overexpressing cells. […] The low‐dose potentiation of γ‐secretase cleavage was further mechanistically probed using in vitro assays with recombinant substrates and IP‐MS.
as §1, §2

rAPPC100sub = test: Cell-free γ-secretase assay, rAPPC100sub (IP-MS), low-dose potentiation; type: biochemical; details: in vitro assay, recombinant substrate
Source text: as §3

NOTCH1 = test: Endogenous NOTCH1 cleavage inhibition in MDA-MB-231 cells (NICD Western blot after EDTA activation); type: cell-based; details: for NICD levels at 100 nM: MDA-MB-231, 100 nM
Protocol: To extend the study to a more physiological system, we assessed endogenous NOTCH1 cleavage inhibition using the triple‐negative breast cancer line MDA‐MB‐231 (Fig 6A). Full‐length blots are shown in source data for Fig 6. NOTCH1 cleavage was detected by Western blotting using the Cell Signaling neo‐epitope NICD antibody. […] The inhibition of endogenous APP in MDA‐MB‐231 cells was also tested by detecting accumulation of APP COOH‐terminal fragments (APP‐CTFs). […] Figure 6D summarized the APP‐CTF band intensities normalized for DMSO group. The original blots are available in source data for Fig 6.
Short‐term endogenous NOTCH1 cleavage inhibition was tested in the triple‐negative breast cancer cell lines MDA‐MB‐231 (ATCC, Manassas, VA). Cells were plated in 60 mm dishes and maintained as monolayer cultures in DMEM medium supplemented with 10% FBS, 1% penicillin/streptomycin, 1% L‐glutamine (Life Technologies), and incubated at 37°C in a humidified 5% CO2 incubator. After the cells reached ~75% confluency, cultures were pretreated with GSIs for 1 h in DMEM at 37°C in a 5% CO2 incubator. GSIs were tested at concentrations of 0, 0.1, 0.5, 2.5, and 12.5 μM. Then, EDTA (5 mM, Life Technologies) was added to the cell cultures to induce Notch activation for 5 min. Following incubation, cell extracts were prepared by lysing cells in RIPA buffer (Santa Cruz Biotechnology) containing protease and phosphatase inhibitors. Western blotting was performed using Cleaved NOTCH1 (Val1744) antibody (Cell Signaling) with β‐actin (Santa Cruz Biotechnology) as loading control. Band intensities were normalized for actin using ImageJ Software (NIH, USA).
as §2

Structure (SMILES) | IC50 (cNOTCH1sub) | IC50 (full‐length APP) | concentration at which cleavage from rAPPC100sub was potentiated (rAPPC100sub) | NICD levels at 100 nM (NOTCH1) | concentration reducing NICD to background levels or below (NOTCH1; MDA-MB-231) | low-dose potentiation of cleavage, APP (full‐length APP; full-length APP overexpressing cells) | NICD levels (NOTCH1; MDA-MB-231, 100 nM to 12.5 μM, 1 h pretreatment then 5 mM EDTA 5 min)
CN1C(=O)[C@@H](NC(=O)[C@H](CCC(F)(F)F)[C@H](CCC(F)(F)F)C(N)=O)N=C(c2ccccc2)c2ccccc21 [BMS‐906024] | 0.29 nM | 0.05 nM | 0.03 nM | reduced NICD to levels equal or lower than baseline | – | – | –
O=C(O)CC[C@H]1CC[C@@](c2cc(F)ccc2F)(S(=O)(=O)c2ccc(Cl)cc2)CC1 [MK‐0752] | 87.4 nM | 9.03 nM | – | – | ≥ 0.5 µM | – | –
CCC[C@H](N[C@H]1CCc2cc(F)cc(F)c2C1)C(=O)Nc1cn(C(C)(C)CNCC(C)(C)C)cn1 [PF‐3084014] | 0.6 nM | 0.07 nM | – | reduced NICD to levels equal or lower than baseline | – | – | –
CC(C)(C(=O)NCC(F)(F)C(F)(F)F)C(=O)N[C@@H]1C(=O)Nc2ccccc2-c2ccccc21 [RO4929097] | 0.46 nM | 1.41 nM | – | reduced NICD to levels equal or lower than baseline | – | low‐dose potentiation of cleavage was observed | –
CC(C)[C@H](O)C(=O)N[C@@H](C)C(=O)N[C@@H]1C(=O)N(C)CCc2ccccc21 [Semagacestat] | 7.02 nM | 24.5 nM | 0.16 nM | – | – | – | reduced NICD concentrations to near‐baseline levels at all concentrations tested
